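Five compound concentrations were applied to cells in 96-well plates for 48 hours; endpoints were derived by simple linear interpolation of the resulting dose-response curve. TGI marks complete inhibition of growth.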
Key:
Experiment in all cases: NCI-60 cell line screen, 48 h
NCI/ADR-RES ovarian = tested on: NCI/ADR-RES ovarian
MOLT-4 leukemia = tested on: MOLT-4 leukemia
CAKI-1 renal = tested on: CAKI-1 renal
COLO 205 colon = tested on: COLO 205 colon
MDA-MB-231 breast = tested on: MDA-MB-231 breast
HS 578T breast = tested on: HS 578T breast
T-47D breast = tested on: T-47D breast
OVCAR-4 ovarian = tested on: OVCAR-4 ovarian
786-0 renal = tested on: 786-0 renal
HCC-2998 colon = tested on: HCC-2998 colon
DU-145 prostate = tested on: DU-145 prostate
SF-268 CNS = tested on: SF-268 CNS
K-562 leukemia = tested on: K-562 leukemia
RXF 393 renal = tested on: RXF 393 renal
CCRF-CEM leukemia = tested on: CCRF-CEM leukemia
RPMI-8226 leukemia = tested on: RPMI-8226 leukemia
MDA-MB-435 = tested on: MDA-MB-435
SN12C renal = tested on: SN12C renal
HCT-15 colon = tested on: HCT-15 colon
SF-295 CNS = tested on: SF-295 CNS
HOP-62 NSCLC = tested on: HOP-62 NSCLC
UO-31 renal = tested on: UO-31 renal
MDA-N = tested on: MDA-N
SK-MEL-2 melanoma = tested on: SK-MEL-2 melanoma
SW-620 colon = tested on: SW-620 colon
SNB-75 CNS = tested on: SNB-75 CNS
OVCAR-3 ovarian = tested on: OVCAR-3 ovarian
UACC-62 melanoma = tested on: UACC-62 melanoma
MCF7 breast = tested on: MCF7 breast
UACC-257 melanoma = tested on: UACC-257 melanoma
SNB-78 CNS = tested on: SNB-78 CNS
SK-OV-3 ovarian = tested on: SK-OV-3 ovarian
SK-MEL-5 melanoma = tested on: SK-MEL-5 melanoma
SF-539 CNS = tested on: SF-539 CNS
A549 NSCLC = tested on: A549 NSCLC
NCI-H522 lung = tested on: NCI-H522 lung
HL-60(TB) leukemia = tested on: HL-60(TB) leukemia
DMS 273 small cell lung = tested on: DMS 273 small cell lung
HT29 colon = tested on: HT29 colon
SR leukemia = tested on: SR leukemia
BT-549 breast = tested on: BT-549 breast
NCI-H226 lung = tested on: NCI-H226 lung
HOP-92 NSCLC = tested on: HOP-92 NSCLC
EKVX NSCLC = tested on: EKVX NSCLC
U251 CNS = tested on: U251 CNS
SK-MEL-28 melanoma = tested on: SK-MEL-28 melanoma
SNB-19 CNS = tested on: SNB-19 CNS
KM20L2 colon = tested on: KM20L2 colon
OVCAR-5 ovarian = tested on: OVCAR-5 ovarian
DLD-1 colon = tested on: DLD-1 colon
M19-MEL melanoma = tested on: M19-MEL melanoma
IGROV1 ovarian = tested on: IGROV1 ovarian
LXFL 529 NSCLC = tested on: LXFL 529 NSCLC
A498 renal = tested on: A498 renal
M14 melanoma = tested on: M14 melanoma
HCT-116 colon = tested on: HCT-116 colon
OVCAR-8 ovarian = tested on: OVCAR-8 ovarian
NCI-H23 lung = tested on: NCI-H23 lung
TK-10 renal = tested on: TK-10 renal
LOX IMVI melanoma = tested on: LOX IMVI melanoma
NCI-H460 lung = tested on: NCI-H460 lung
MALME-3M melanoma = tested on: MALME-3M melanoma
PC-3 prostate = tested on: PC-3 prostate
KM12 colon = tested on: KM12 colon
XF 498 CNS = tested on: XF 498 CNS
DMS 114 small cell lung = tested on: DMS 114 small cell lung
ACHN renal = tested on: ACHN renal

Measured: TGI

CC12C=CC(=O)C=C1CCC1C3CCC(O)(C(=O)CO)C3(C)CC(O)C12F (configuration not stated)
> 100 µM: all assays above
